The numbers were not newly measured in patent publication US6409990B1, “Macromolecular carrier for drug and diagnostic agent delivery” (The Regents of the University of California, priority 1999, dated 2002), which cites them from elsewhere.

For this data set the following is noted: similar time postinjection; Grist TM et al.

Each structure is given as a SMILES string.

In the case of `O=C([O-])CN(CCN(CC(=O)[O-])C[C@H](COP(=O)([O-])OC1CCC(c2ccccc2)(c2ccccc2)CC1)N(CC(=O)[O-])CC(=O)[O-])CC(=O)[O-].[Gd+3].[H+].[H+].[H+]` [MS-325], the “typical CNR in the human aorta” value is on record as 42.
